Patent US11332438B2, “Creatine prodrugs, compositions and methods of use thereof” (Ultragenyx Pharmaceutical Inc., priority 2017, dated 2022)

How the values were obtained:
[1] = Liver microsome stability, human; type: in vitro ADME; settings: liver microsomes, read-out: Microsome Stability Human t1/2
Protocol: (§1) The stabilities of creatine prodrugs can be evaluated in one or more in vitro systems using a variety of preparations following methods known in the art. Experimental conditions useful for the in vitro studies are described in Table 1. Prodrug is added to each preparation in triplicate. […]
(§2) Protocol for Microsomal Stability:
(§3) For reference compound, a 500 μM spiking solution was prepared: add 10 μL of 10 mM DMSO stock solution into 190 μL ACN. […] For test compound, a 5 mM spiking solution was prepared: add 10 μL of 10 mM DMSO stock solution into 10 μL ACN. […] NADPH stock solution (6 mM) was prepared by dissolving NADPH into buffer 0.1 M Potassium Phosphate buffer, 1.0 mM EDTA, pH 7.4. […] For 0-min, 135 μL of ACN containing IS was added to the wells of 0-min plate and then 15 μL of NADPH stock solution (6 mM) was added. 15 μL of NADPH stock solution (6 mM) was added to the samples designated as 0-, 5-, 10-, 20-, 30-min, 60-min; 15 μL of buffer 0.1 M Potassium Phosphate buffer, 1.0 mM EDTA, pH 7.4, was added to the samples designated as 60-min without NADPH. At 5-min, 10-min, 20-min, and 30-min, 60-min 135 μL of ACN containing IS was added to the wells of corresponding plates, respectively, to stop the reaction. […] 50 μL of the supernatant from each well was transferred into a 96-well sample plate containing 50 μL of ultra pure water (Millipore, ZMQS50FOI) and analyzed by LC/MS.

[2] = Liver microsome stability, mouse; type: in vitro ADME; settings: liver microsomes, read-out: Microsome Stability Mouse t1/2
Protocol: as §1, §2, §3

[3] = Plasma stability, human plasma; type: in vitro ADME; settings: 37 °C, read-out: Plasma Stability Human t1/2
Protocol: as §1
(§4) Protocol for plasma stability for early screen macrocycles (Method A):
(§5) Frozen plasma was thawed by placing at 37° C. quickly and centrifuged at 3,000 rpm for 8 minutes to remove clots. Then the supernatant was pipetted and pooled as the plasma to be used in the experiment. The plasma was placed on ice until used. The test compounds and reference compounds spiking solution was prepared as a 2.5 mM test compounds spiking solution A: Add 20 μL of 10 mM test compounds stock solution to 60 μL DMSO. 0.1 mM Spiking solution B was prepared: Add 40 μL of spiking solution A to 960 μL of […] Sodium phosphate buffer with 0.5% BSA. […] For 0-min, 400 μL of ACN containing IS was added to the wells of 0-min plate and then 90 μL of plasma was added. […] 50 μL of the supernatant was transferred from each well into a 96-well sample plate containing 120 μL of ultra pure water (Millipore, ZMQS50F01) and analyzed by LC/MS.
(§6) Protocol for plasma stability (Method B):
(§7) The frozen plasma was thawed in a 37° C. water bath and then, if needed, adjusted to pH=7.4 then preheated in a 37° C. incubator. The test article was dissolved in 10% DMSO/water and spiked into plasma pre-plated into 96 well plates at a final concentration of 1 μM. Discrete incubations were performed at 37° C. and included 5 time points: t=0, 2, 5, 15, and 30 min. Samples were then crashed with 4× volume, ice cold 20% water/80% acetonitrile and spun at 4000 g for 10 mins. The supernatant was dried down and reconstituted with water and analyzed by LC-MS/MS. The half life in minute was calculated.

[4] = Chemical stability in phosphate buffered saline (PBS); type: physicochemical; settings: 50 μM prodrug
Protocol: (§8) Chemical stability of creatine prodrugs in phosphate buffered saline (PBS), simulated intestinal fluid (SIF) without pancreatin, simulated gastric fluid (SGF) without pepsin were determined by LC-UV, LC-CAD, LC-UV-CAD or LC-MS/MS as appropriate. Creatine prodrugs of the present disclosure (50 μM) were incubated at 37° C. according to described protocols and prodrug levels were compared between t=0, t=15, t=60, and t=120 mins by peak area ratio to determine the percentage remained at t=120 mins (2 h).
(§9) Protocol for PBS, SIF and SGF stability for screening:
(§10) Prodrugs (50 μM) were incubated in PBS, FaSSIF (Biorelevant) or FaSSGF (Biorelevant) at 37° C.

[5] = Plasma stability, mouse plasma; type: in vitro ADME; settings: 37 °C, read-out: Plasma Stability Mouse t1/2
Protocol: as §1, §4, §5, §6, §7

[6] = Chemical stability in simulated gastric fluid (SGF) without pepsin; type: physicochemical; settings: 50 μM prodrug
Protocol: as §8, §9, §10

SMILES	half-life at 10 μM ([1]; pH 7.4, Table 2B) [h]	half-life at 10 μM ([2]; pH 7.4, Table 2B) [h]	half-life ([3]; Table 2B) [h]	Chemical Stability PBS % T0 at 2 hours at 37 °C. ([4]; Table 2B) [%]	half-life ([5]; Table 2B) [h]	Chemical Stability SGF, no enzyme % T0 at 2 hours at 37 °C. ([6]; Table 2B) [%]	half-life at 10 μM ([1]; pH 7.4, Table 2A) [h]	half-life at 10 μM ([2]; pH 7.4, Table 2A) [h]	half-life ([3]; Table 2A) [h]	Chemical Stability PBS % T0 at 2 hours at 37 °C. ([4]; Table 2A) [%]	half-life ([5]; Table 2A) [h]	Chemical Stability SGF, no enzyme % T0 at 2 hours at 37 °C. ([6]; Table 2A) [%]
[2H]C([2H])([2H])N(CC(=O)OC(C)(C)C(C)(C)O)C(=N)NC(=O)CCCCCCCCCC [Compound 61]	< 0.0833	< 0.0833	< 0.0833	106	< 0.0833	99	–	–	–	–	–	–
[2H]C([2H])([2H])N(CC(=O)OC(C)(C)C(C)(C)O)C(=N)NC(=O)CCCCCC [Compound 63]	< 0.0833	< 0.0833	< 0.0833	58	< 0.0833	101	–	–	–	–	–	–
[2H]C([2H])([2H])N(CC(=O)OC(C)(C)C(C)C)C(=N)NC(=O)CCCCCC [Compound 60]	< 0.0833	< 0.0833	> 3	101	> 3	99	–	–	–	–	–	–
[2H]C([2H])([2H])N(CC(=O)O)C(=N)NC(=O)CCCCCCC/C=C\CCCCCC [Compound 28]	–	–	–	–	–	–	1.5	1.4	> 3	51	> 3	99
Cl.[2H]C([2H])([2H])N(CC(=O)OC(C)(C)C)C(=N)NC(=O)CCCCCCCCCC [Compound 44]	0.15	< 0.0833	–	107	–	95	0.15	< 0.0833	1.67	42	0.133	86
[2H]C([2H])([2H])N(CC(=O)O)C(=N)NC(=O)c1cccnc1 [Compound 21]	–	–	–	–	–	–	> 2.42	> 2.42	> 3	105	> 3	74
[2H]C([2H])([2H])N(CC(=O)[O-])C(=N)NC(=O)CCCCCCCCCC/C=C\CCCCC.[Na+] [Compound 27]	–	–	–	–	–	–	0.233	0.167	> 3	67	> 3	96
[2H]C([2H])([2H])N1CC(=O)N=C1NC(=O)CCCCCCCCCC [Compound 49]	–	–	–	–	–	–	0.4	< 0.0833	> 3	87	0.783	62
[2H]C([2H])([2H])N(CC(=O)OCC)/C(=N\C(=O)OC(C)(C)C)NC(=O)CCCCCCCCCC [Compound 47]	–	–	–	–	–	–	0.267	0.0833	2.82	55	< 0.0833	32
[2H]C([2H])([2H])N(CC(=O)OC(C)(C)C(C)C)C(=N)NC(=O)CCCCCCCCCC [Compound 62]	< 0.0833	< 0.0833	> 3	62	1.27	103	–	–	–	–	–	–

Continued, values first:

half-life at 10 μM ([1]; pH 7.4, Table 2B) [h]	half-life at 10 μM ([2]; pH 7.4, Table 2B) [h]	half-life ([3]; Table 2B) [h]	Chemical Stability PBS % T0 at 2 hours at 37 °C. ([4]; Table 2B) [%]	half-life ([5]; Table 2B) [h]	Chemical Stability SGF, no enzyme % T0 at 2 hours at 37 °C. ([6]; Table 2B) [%]	half-life at 10 μM ([1]; pH 7.4, Table 2A) [h]	half-life at 10 μM ([2]; pH 7.4, Table 2A) [h]	half-life ([3]; Table 2A) [h]	Chemical Stability PBS % T0 at 2 hours at 37 °C. ([4]; Table 2A) [%]	half-life ([5]; Table 2A) [h]	Chemical Stability SGF, no enzyme % T0 at 2 hours at 37 °C. ([6]; Table 2A) [%]	SMILES
–	–	–	–	–	–	0.983	> 2.42	> 3	98	> 3	98	[2H]C([2H])([2H])N(CC(=O)[O-])C(=N)NC(=O)CCCCCCCCCCC.[Na+] [Compound 31]
–	–	–	–	–	–	> 2.42	> 2.42	> 3	101	> 3	99	[2H]C([2H])([2H])N(CC(=O)[O-])C(=N)NC(=O)CCCCCCC.[Na+] [Compound 38]
–	–	–	–	–	–	1.08	> 2.42	> 3	116	> 3	86	[2H]C([2H])([2H])N(CC(=O)[O-])C(=N)NC(=O)CCCCCCCC.[Li+] [Compound 35]
–	–	–	–	–	–	1.13	> 2.42	> 3	45	> 3	95	[2H]C([2H])([2H])N(CC(=O)[O-])C(=N)NC(=O)CCCCC/C=C\CCCCCCCCCC.[Na+] [Compound 26]
–	–	–	–	–	–	1.7	> 2.42	> 3	106	> 3	99	[2H]C([2H])([2H])N(CC(=O)[O-])C(=N)NC(=O)CCCCCCCC.[Na+] [Compound 36]
> 1.5	> 1.5	> 3	78	> 3	89	–	–	–	–	–	–	[2H]C([2H])([2H])N(CC(=O)[O-])C(=N)NC(=O)CCCCCCCCCC(C)O.[Na+] (stereo not shown) [Compound 57]
–	–	–	–	–	–	< 0.0833	< 0.0833	> 3	0	0.55	99	[2H]C([2H])([2H])N(CCO)C(=N)NC(=O)CCCCCCCCCC [Compound 9]
–	–	–	–	–	–	0.983	1.83	> 3	64	> 3	91	[2H]C([2H])([2H])N(CC(=O)[O-])C(=N)NC(=O)CCCCCCCCCCCC.[Na+] [Compound 29]
> 1.5	> 1.5	> 3	58	> 3	81	–	–	–	–	–	–	[2H]C([2H])([2H])N(CC(=O)[O-])C(=N)NC(=O)CCCCCCCCCCCO.[Na+] [Compound 56]
–	–	–	–	–	–	1.2	1.77	> 3	85	> 3	79	[2H]C([2H])([2H])N(CC(=O)[O-])C(=N)NC(=O)CCCCCCCCCC.[K+] [Compound 33]
–	–	–	–	–	–	> 2.42	> 2.42	> 3	89	> 3	72	[2H]C([2H])([2H])N(CC(=O)[O-])C(=N)NC(=O)CCCC/C=C\CCCCCCCCCCC.[Na+] [Compound 25]
